Results reported in patent US20230087844A1, “USE OF N2-QUINCLINE OR ISOQUINOLINE SUBSTITUTED PURINE DERIVATIVES IN CANCER TREATMENT” (SHANGHAI HUAYU BIOTECHNOLOGY CO., LTD., priority 2020, published 2023).
Marks after values point to notes of the source that are not given here.

Key:
BT-474 = assay: MTT tumor cell proliferation, BT-474; format: cell-based; settings: Homo sapiens; BT-474, Breast cancer, 72 hour
Procedure: (§1) as an exemplary compound of formula (I), was tested for its inhibitory effect on tumor cell proliferation in a MTT assay.
(§2) Briefly, cells at the log phase were collected, suspended in the cell culture medium at 4*10^4/ml density, and plated in 96-well plates, 90 μl per well. The plates were kept in a 5% CO2 and 37° C. incubator for 2 hours, and then added with 100 μg/ml, 10 μg/ml, 1 μg/ml, 0.1 μg/ml, 0.01 μg/ml or 0.001 μg/ml Compound A, 4 replicates for each cell at each compound concentration. DMSO was used in the positive control group, and another negative group was also set. After 72 hour incubation in the same incubator, 20 μl 5 mg/ml MTT reagent was added to each well. After another 4 hour incubation, each well was added with 100 μl SDS and further incubated for 12 hours. Absorbance at 570 nm was read in a reader, and IC50 was calculated.

HL-60 = assay: MTT tumor cell proliferation, HL-60; format: cell-based; settings: Homo sapiens; HL-60, Acute promyelocytic leukemia, 72 hour
Procedure: as §1, §2

[1] = tested on: A549 human non-small cell lung cancer cells; assay: A549 non-small cell lung cancer xenograft in mice; settings: D0, 3, 6, 9; for T/C: D18
Procedure: Mice body weights and tumor sizes were measured 2 to 3 times a week. The tumor volume (V) was calculated as (length× width^2)/2. T/C (%) was calculated as (T-T0)/(C-C0)×100, wherein T and C represented the tumor volumes in the administration group and the vehicle group respectively at the end of the experiment, while T0 and C0 represented the tumor volumes in the administration group and the vehicle group respectively at the beginning of the experiment. And RTV was calculated as (Tumor volume at Day N/Tumor volume at Day 0). Mice were sacrificed on Day-14.
BALB/cA-nude mice, 5-6 weeks old, purchased from Shanghai SLAC Laboratory Animal Co., Ltd, were subcutaneously inoculated with A549 human non-small cell lung cancer cells (from ATCC).
Mice body weights and tumor sizes were measured 2 to 3 times a week. The tumor volume, T/C and RTV were calculated as described above. Mice were sacrificed on Day 18.

PI3K β isoform = PI3K β isoform (Homo sapiens, UniProt P42338); settings: one of the other three isoforms
Sequence of PI3K β isoform (P42338 whole entry, canonical isoform): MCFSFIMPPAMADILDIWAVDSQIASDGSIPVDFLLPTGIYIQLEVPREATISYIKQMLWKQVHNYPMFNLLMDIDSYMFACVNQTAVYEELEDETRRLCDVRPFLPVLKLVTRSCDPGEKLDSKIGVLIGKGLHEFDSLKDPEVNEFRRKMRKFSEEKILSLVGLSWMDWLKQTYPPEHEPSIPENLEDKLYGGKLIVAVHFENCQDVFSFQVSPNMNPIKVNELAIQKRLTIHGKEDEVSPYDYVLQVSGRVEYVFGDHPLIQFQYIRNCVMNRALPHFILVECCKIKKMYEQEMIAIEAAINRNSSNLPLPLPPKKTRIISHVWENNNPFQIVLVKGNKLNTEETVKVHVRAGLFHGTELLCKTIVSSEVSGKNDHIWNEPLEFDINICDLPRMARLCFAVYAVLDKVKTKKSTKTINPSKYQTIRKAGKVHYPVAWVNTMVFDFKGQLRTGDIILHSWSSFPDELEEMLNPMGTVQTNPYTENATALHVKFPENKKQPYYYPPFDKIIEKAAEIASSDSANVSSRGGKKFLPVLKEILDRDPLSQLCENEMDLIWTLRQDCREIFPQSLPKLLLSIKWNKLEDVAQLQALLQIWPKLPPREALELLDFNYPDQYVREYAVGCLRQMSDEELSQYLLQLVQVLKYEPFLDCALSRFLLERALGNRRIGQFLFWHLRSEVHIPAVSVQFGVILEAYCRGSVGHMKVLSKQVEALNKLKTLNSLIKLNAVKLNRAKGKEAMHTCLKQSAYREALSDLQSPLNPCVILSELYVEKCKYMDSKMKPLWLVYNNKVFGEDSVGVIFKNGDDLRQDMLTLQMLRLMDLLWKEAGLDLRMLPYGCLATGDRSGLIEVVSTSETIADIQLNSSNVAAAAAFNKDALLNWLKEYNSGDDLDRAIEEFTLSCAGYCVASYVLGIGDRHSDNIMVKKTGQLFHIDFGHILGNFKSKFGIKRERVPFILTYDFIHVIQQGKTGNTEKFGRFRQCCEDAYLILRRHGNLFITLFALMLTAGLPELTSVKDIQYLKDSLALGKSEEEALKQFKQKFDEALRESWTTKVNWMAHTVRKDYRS
Sequence of PI3K β isoform (P27986 whole entry partner, canonical isoform): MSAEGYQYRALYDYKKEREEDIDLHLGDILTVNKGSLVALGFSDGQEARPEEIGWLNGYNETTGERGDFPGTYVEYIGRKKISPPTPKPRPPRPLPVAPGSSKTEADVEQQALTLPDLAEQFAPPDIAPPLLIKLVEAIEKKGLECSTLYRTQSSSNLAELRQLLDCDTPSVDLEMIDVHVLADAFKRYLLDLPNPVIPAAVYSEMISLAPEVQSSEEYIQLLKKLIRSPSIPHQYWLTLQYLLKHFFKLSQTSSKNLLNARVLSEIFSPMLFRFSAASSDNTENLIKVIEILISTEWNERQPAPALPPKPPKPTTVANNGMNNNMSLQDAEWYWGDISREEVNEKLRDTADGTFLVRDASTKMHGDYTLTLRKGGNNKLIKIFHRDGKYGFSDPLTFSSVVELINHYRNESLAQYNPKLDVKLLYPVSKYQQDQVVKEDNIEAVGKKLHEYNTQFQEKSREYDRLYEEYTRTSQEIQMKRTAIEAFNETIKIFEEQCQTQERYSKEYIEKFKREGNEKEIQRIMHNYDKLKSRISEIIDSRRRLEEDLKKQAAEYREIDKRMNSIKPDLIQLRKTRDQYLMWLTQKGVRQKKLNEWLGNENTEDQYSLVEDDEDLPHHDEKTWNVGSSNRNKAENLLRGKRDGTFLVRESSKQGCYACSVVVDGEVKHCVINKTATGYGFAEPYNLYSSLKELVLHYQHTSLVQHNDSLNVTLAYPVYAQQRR

Ls-174t = assay: MTT tumor cell proliferation, Ls-174t; format: cell-based; settings: Homo sapiens, LS174T, Colon cancer, 72 hour
Procedure: as §1, §2

PI3K δ isoform = PI3K δ isoform (Homo sapiens, UniProt O00329); assay: biochemical
Sequence of PI3K δ isoform (O00329 whole entry, canonical isoform): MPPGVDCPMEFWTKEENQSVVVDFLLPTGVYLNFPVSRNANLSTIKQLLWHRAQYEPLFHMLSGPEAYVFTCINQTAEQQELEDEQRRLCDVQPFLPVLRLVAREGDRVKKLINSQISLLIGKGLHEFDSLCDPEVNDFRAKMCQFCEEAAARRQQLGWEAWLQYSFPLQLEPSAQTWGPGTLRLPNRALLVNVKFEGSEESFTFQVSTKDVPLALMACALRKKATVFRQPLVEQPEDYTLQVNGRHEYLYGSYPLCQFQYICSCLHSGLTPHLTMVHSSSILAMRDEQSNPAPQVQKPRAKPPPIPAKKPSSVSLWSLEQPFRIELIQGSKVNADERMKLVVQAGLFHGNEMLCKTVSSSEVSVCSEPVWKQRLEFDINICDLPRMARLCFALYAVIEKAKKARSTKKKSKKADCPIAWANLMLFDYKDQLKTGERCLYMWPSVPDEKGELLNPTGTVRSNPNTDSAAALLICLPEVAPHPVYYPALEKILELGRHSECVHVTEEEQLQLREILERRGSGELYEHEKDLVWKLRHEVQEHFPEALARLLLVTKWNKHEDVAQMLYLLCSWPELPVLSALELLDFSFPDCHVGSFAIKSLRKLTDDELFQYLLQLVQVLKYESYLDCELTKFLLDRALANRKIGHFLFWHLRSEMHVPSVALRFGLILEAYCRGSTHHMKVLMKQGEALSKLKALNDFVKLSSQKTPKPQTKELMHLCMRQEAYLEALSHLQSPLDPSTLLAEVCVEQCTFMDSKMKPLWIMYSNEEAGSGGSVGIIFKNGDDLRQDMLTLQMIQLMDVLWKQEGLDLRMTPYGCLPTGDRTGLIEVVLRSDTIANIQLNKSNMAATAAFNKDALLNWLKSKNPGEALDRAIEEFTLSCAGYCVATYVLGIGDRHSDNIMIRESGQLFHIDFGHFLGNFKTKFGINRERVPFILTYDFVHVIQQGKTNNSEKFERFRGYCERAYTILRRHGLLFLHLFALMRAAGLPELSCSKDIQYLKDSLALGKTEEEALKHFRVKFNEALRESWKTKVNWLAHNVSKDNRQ
Sequence of PI3K δ isoform (P27986 whole entry partner, canonical isoform): as the sequence (P27986 whole entry partner, canonical isoform) above

MDA-MB-231 = assay: MTT tumor cell proliferation, MDA-MB-231; format: cell-based; settings: Homo sapiens; MDA-MB-231, Breast cancer, 72 hour
Procedure: as §1, §2

H446 = assay: Tumor cell death by MTT, H446; format: cell-based, human; settings: 20 nM
Procedure: (§3) The in vitro inhibitory effect of Compound A alone or in combination with a PARP inhibitor on tumor cell growth was tested using human small cell lung cancer (SCLC) cell lines, including H69 (ATCC® HTB-119™), H526 (ATCC® CRL-5811™) and H446 (TCHu196, National Collection of Authenticated Cell Cultures).
(§4) Briefly, the cells were seeded into a 96-well dish with RPMI-1640 (10-040-CV, Coming cellgro) containing 10% fetal bovine serum (10270-106, GIBCO), 1% penicillin and 1% streptomycin (BaSalMedia, S110JV), at an initial density of 3×10^3 cells per well ([…]), and cultured at a 37° C., 5% CO2 humidified incubator for 24 hours. Then, the culture media were added with Compound A (final concentration at 20 nM), olaparib (APEXBIO, A4154, a PARP inhibitor, final concentration at 10 μM), Compound A + olaparib (final concentrations at20 nM and 10 μM), or PBS (vehicle), respectively, and the cells were cultured for 48 hours. Then, cell viability was determined by MTT. The test was done in triplicate.
(§5) Cell death rate was calculated by the following formula.
(§6) Cell death rate=[1−(ODtest-ODvehicle)]×100%
(§7) Cell death rates were analyzed using student's t-test, and group differences were deemed statistically significant when the p-value was lower than 0.05. Zheng-Jun Jin's Q value was calculated using the formula Q=EA+B/(EA+EB-EA×EB) to assess the combined effect of Compound A and the PARP inhibitor, wherein EA+B, EA, and EB referred to the cell death rates caused by the combined treatment, Compound A treatment and PARP inhibitor treatment, respectively. A Q value higher than 1.15 meant a synergistic […] effect.
(§8) Another PARP inhibitor, rucaparib (APEXBIO, A4156), was tested alone or with Compound A for inhibitory effect on tumor cell growth, following the protocol of Example 9.

K562 = assay: MTT tumor cell proliferation, K562; format: cell-based; settings: Homo sapiens; K562, Chronic myeloid leukemia, 72 hour
Procedure: as §1, §2

FLT3 = FLT3 (Homo sapiens, UniProt P36888); assay: Inhibition of FLT3 phosphorylation; format: biochemical
Sequence of FLT3 (P36888 27-993, species assumed): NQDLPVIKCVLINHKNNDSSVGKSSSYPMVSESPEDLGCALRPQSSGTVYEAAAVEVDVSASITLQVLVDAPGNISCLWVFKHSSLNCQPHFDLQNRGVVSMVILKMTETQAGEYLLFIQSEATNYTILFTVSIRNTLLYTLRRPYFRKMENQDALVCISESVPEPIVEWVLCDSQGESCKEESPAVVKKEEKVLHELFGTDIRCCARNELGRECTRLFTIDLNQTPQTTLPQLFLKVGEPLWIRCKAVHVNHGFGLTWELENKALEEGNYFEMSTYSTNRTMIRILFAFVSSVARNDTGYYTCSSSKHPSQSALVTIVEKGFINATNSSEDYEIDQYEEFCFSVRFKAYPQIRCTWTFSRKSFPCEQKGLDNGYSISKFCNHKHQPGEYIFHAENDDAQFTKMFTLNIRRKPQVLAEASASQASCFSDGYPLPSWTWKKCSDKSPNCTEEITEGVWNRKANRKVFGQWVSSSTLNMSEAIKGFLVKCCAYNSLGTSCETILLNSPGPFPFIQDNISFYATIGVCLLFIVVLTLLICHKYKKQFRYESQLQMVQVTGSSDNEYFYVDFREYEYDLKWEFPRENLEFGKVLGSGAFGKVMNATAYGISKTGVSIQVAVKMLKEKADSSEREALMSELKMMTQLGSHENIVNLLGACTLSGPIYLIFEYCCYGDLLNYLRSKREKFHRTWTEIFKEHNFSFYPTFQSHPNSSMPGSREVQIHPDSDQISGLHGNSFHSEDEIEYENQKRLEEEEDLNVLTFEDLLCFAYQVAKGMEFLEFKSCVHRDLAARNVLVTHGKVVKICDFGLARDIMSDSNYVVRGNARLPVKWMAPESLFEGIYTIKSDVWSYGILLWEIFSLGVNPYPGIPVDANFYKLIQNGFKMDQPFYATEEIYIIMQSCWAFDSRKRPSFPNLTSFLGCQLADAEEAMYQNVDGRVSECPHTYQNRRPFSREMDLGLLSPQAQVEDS
Excerpt: (§9) FLT3 is a class III receptor tyrosine kinase and plays an important role in hematopoiesis and lymphocyte development. […] Wang et al found over 60% of 82 leukemia cell lines were FLT3 positive (Wang Y et al., (2006) Journal of Experimental Hematology 14(3): 446-449). FLT3-internal tandem duplication (ITD) is the most commonly seen mutation in AML patients, with about 17-34% of AML patients carrying such a mutation (Jia H et al., (2018) Medical Laboratory Science and Clinics 19(5): 39). […] Thus, the compounds of the disclosure with high inhibitory effect on FLT3 function may be good candidates for leukemia treatment.

solid cancer cell lines = assay: MTT tumor cell proliferation, solid cancer cell lines (summary); format: cell-based; settings: summary of Table 2
Procedure: as §1, §2

H526 = assay: Tumor cell death by MTT, H526; format: cell-based, human; settings: 20 nM
Procedure: as §3, §4, §5, §6, §7, §8

H441 = assay: MTT tumor cell proliferation, H441; format: cell-based; settings: Homo sapiens, NCI-H441; H441, Lung cancer, 72 hour
Procedure: as §1, §2

A549 = assay: MTT tumor cell proliferation, A549; format: cell-based; settings: Homo sapiens; A549, Lung cancer, 72 hour
Procedure: as §1, §2

leukemia cell lines = assay: MTT tumor cell proliferation, leukemia cell lines (summary); format: cell-based; settings: summary of Table 2
Procedure: as §1, §2

PDGFR = assay: Inhibition of PDGFR phosphorylation; format: biochemical
Excerpt: as §9

## c1cnc2ccc(Nc3nc(NC4CC4)c4nc[nH]c4n3)cc2c1 [Compound A]
BT-474
  IC50: 4.4 ± 0.4 µM
HL-60
  IC50: 500 ± 300 nM
[1]; 15 mg/kg P.O.
  RTV at D18: 18.67 ± 12.89
  Tumor volume D0: 118 ± 21 mm^3
  Tumor volume D18: 2135 ± 1279 mm^3
  T/C: 70.8%
[1]; 30 mg/kg P.O.
  RTV at D18: 12.58 ± 4.38
  Tumor volume D0: 113 ± 19 mm^3
  Tumor volume D18: 1449 ± 608 mm^3
  T/C: 47.7* %
[1]; 60 mg/kg P.O.
  RTV at D18: 9.15 ± 5.33
  Tumor volume D0: 110 ± 11 mm^3
  Tumor volume D18: 1039 ± 669 mm^3
  T/C: 34.7* %
PI3K β isoform
  EC50, PI3K β isoform: at the μM level
Ls-174t
  IC50: 5.9 ± 0.9 µM
PI3K δ isoform
  EC50: ~90 nM
MDA-MB-231
  IC50: 3.5 ± 0.1 µM
H446; 48 hours, Table 10
  Cell Death Rate/% 1: 13.5%
  Cell Death Rate/% 2: 13.18%
  Cell Death Rate/% 3: 13.67%
  Cell Death Rate/% mean: 13.45%
H446; Example 10, Table 11
  Cell Death Rate/% 1: 15%
  Cell Death Rate/% 2: 14.62%
  Cell Death Rate/% 3: 15.17%
  Cell Death Rate/% mean: 14.93%
K562
  IC50: 1200 ± 100 nM
FLT3
  EC50: ~49 nM
Solid cancer cell lines
  IC50: ≥ 2300 nM
H526; 48 hours, Table 10
  Cell Death Rate/% 1: 10.5%
  Cell Death Rate/% 2: 9.87%
  Cell Death Rate/% 3: 10.95%
  Cell Death Rate/% mean: 10.44%
H526; Example 10, Table 11
  Cell Death Rate/% 1: 8.29%
  Cell Death Rate/% 2: 8.39%
  Cell Death Rate/% 3: 8.64%
  Cell Death Rate/% mean: 8.44%
H441
  IC50: 15.9 ± 9.5 µM
A549
  IC50: 2300 ± 800 nM
Leukemia cell lines
  IC50: ≤ 1600 nM
PDGFR
  EC50: ~1000 nM
